Reference: the CheMixHub ionic liquid set
Where “and” joins values, the source holds several entries; their conditions need not be identical. Equal entries are not always repeated. ± gives the uncertainty stated by the source.

Assay: xn = mol fraction of the nth substance listed
Conditions: 298.15 K, 101 kPa, frequency 0.001 MHz

CCCCCCCCCCCCCCCC[N+](C)(C)C.[Br-] + CCCCCCCCCCCCOS(=O)(=O)[O-].[Na+] + O
Conditions | electrical conductivity
x2 = 0, x1 = 3e-08 | 0.000332 ± 3.3e-05 S/m
x2 = 0, x1 = 1.09e-06 | 0.001 ± 0.0001 S/m
x2 = 0, x1 = 2.34e-06 | 0.00165 ± 0.00016 S/m
x2 = 0, x1 = 3.39e-06 | 0.00255 ± 0.00026 S/m
x2 = 0, x1 = 4.43e-06 | 0.00305 ± 0.0003 S/m
x2 = 0, x1 = 5.57e-06 | 0.00366 ± 0.00037 S/m
x2 = 0, x1 = 6.72e-06 | 0.00441 ± 0.00044 S/m
x2 = 0, x1 = 7.97e-06 | 0.00511 ± 0.00051 S/m
x2 = 0, x1 = 8.91e-06 | 0.00577 ± 0.00058 S/m
x2 = 0, x1 = 1.12e-05 | 0.00697 ± 0.0007 S/m
x2 = 0, x1 = 1.213e-05 | 0.00757 ± 0.00076 S/m
x2 = 0, x1 = 1.307e-05 | 0.00823 ± 0.00082 S/m
x2 = 0, x1 = 1.411e-05 | 0.00873 ± 0.00087 S/m
x2 = 0, x1 = 1.526e-05 | 0.00943 ± 0.00094 S/m
x2 = 0, x1 = 1.63e-05 | 0.00978 ± 0.00098 S/m
x2 = 0, x1 = 1.734e-05 | 0.0102 ± 0.001 S/m
x2 = 0, x1 = 1.922e-05 | 0.0105 ± 0.0011 S/m
x2 = 0, x1 = 1.995e-05 | 0.0108 ± 0.0011 S/m
x2 = 0, x1 = 2.172e-05 | 0.0111 ± 0.0011 S/m
x2 = 0, x1 = 2.276e-05 | 0.0113 ± 0.0011 S/m
x2 = 0, x1 = 2.443e-05 | 0.0115 ± 0.0012 S/m
x2 = 0, x1 = 2.599e-05 | 0.0117 ± 0.0012 S/m
x2 = 0, x1 = 2.734e-05 | 0.012 ± 0.0012 S/m
x2 = 0, x1 = 2.859e-05 | 0.0122 ± 0.0012 S/m
x2 = 1e-08, x1 = 1e-08 | 0.000339 S/m and 0.000404 S/m
x2 = 1e-08, x1 = 3e-08 | 0.000436 ± 4.4e-05 S/m
x2 = 1e-08, x1 = 4e-08 | 0.000343 ± 3.4e-05 S/m
x2 = 1e-08, x1 = 1.2e-07 | 0.000394 ± 3.9e-05 S/m
x2 = 2e-08, x1 = 2e-08 | 0.000534 ± 5.3e-05 S/m
x2 = 2e-08, x1 = 3e-08 | 0.000686 S/m and 0.000765 S/m
x2 = 2e-08, x1 = 4e-08 | 0.000522 S/m and 0.000583 S/m and 0.000801 S/m
x2 = 2e-08, x1 = 5e-08 | 0.000647 S/m and 0.000697 S/m
x2 = 2e-08, x1 = 7e-08 | 0.000383 ± 3.8e-05 S/m
x2 = 2e-08, x1 = 8e-08 | 0.000422 ± 4.2e-05 S/m
x2 = 2e-08, x1 = 1.5e-07 | 0.000412 ± 4.1e-05 S/m
x2 = 2e-08, x1 = 1.9e-07 | 0.000438 ± 4.4e-05 S/m
x2 = 3e-08, x1 = 1e-08 | 0.000594 ± 5.9e-05 S/m
x2 = 3e-08, x1 = 4e-08 | 0.000836 ± 8.4e-05 S/m
x2 = 3e-08, x1 = 5e-08 | 0.000883 ± 8.8e-05 S/m
x2 = 3e-08, x1 = 6e-08 | 0.000733 ± 7.3e-05 S/m
x2 = 3e-08, x1 = 7e-08 | 0.000772 ± 7.7e-05 S/m
x2 = 3e-08, x1 = 1.1e-07 | 0.000459 ± 4.6e-05 S/m
x2 = 3e-08, x1 = 2.3e-07 | 0.000467 ± 4.7e-05 S/m
x2 = 3e-08, x1 = 3e-07 | 0.000493 ± 4.9e-05 S/m
x2 = 4e-08, x1 = 2e-08 | 0.000416 S/m and 0.00028 S/m
x2 = 4e-08, x1 = 6e-08 | 0.000919 ± 9.2e-05 S/m
x2 = 4e-08, x1 = 8e-08 | 0.000812 ± 8.1e-05 S/m
x2 = 4e-08, x1 = 1e-07 | 0.000848 ± 8.5e-05 S/m
x2 = 4e-08, x1 = 1.7e-07 | 0.000541 ± 5.4e-05 S/m
x2 = 4e-08, x1 = 3.6e-07 | 0.000522 ± 5.2e-05 S/m
x2 = 5e-08, x1 = 1e-08 | 0.000679 ± 6.8e-05 S/m
x2 = 5e-08, x1 = 7e-08 | 0.000941 ± 9.4e-05 S/m
x2 = 5e-08, x1 = 1.2e-07 | 0.000887 ± 8.9e-05 S/m
x2 = 5e-08, x1 = 4.3e-07 | 0.000555 ± 5.6e-05 S/m
x2 = 6e-08, x1 = 2e-08 | 0.000797 ± 8e-05 S/m
x2 = 6e-08, x1 = 6e-08 | 0.000747 ± 7.5e-05 S/m
x2 = 6e-08, x1 = 9e-08 | 0.000991 ± 9.9e-05 S/m
x2 = 6e-08, x1 = 2.4e-07 | 0.000642 ± 6.4e-05 S/m
x2 = 7e-08, x1 = 1.1e-07 | 0.00101 ± 0.0001 S/m
x2 = 7e-08, x1 = 1.5e-07 | 0.000924 ± 9.2e-05 S/m
x2 = 7e-08, x1 = 2.9e-07 | 0.000707 ± 7.1e-05 S/m
x2 = 8e-08, x1 = 1e-08 | 0.000628 ± 6.3e-05 S/m
x2 = 8e-08, x1 = 2e-08 | 0.000891 ± 8.9e-05 S/m
x2 = 8e-08, x1 = 3e-08 | 0.00034 ± 3.4e-05 S/m
x2 = 8e-08, x1 = 5e-08 | 0.00106 ± 0.00011 S/m
x2 = 8e-08, x1 = 1.9e-07 | 0.00096 ± 9.6e-05 S/m
x2 = 8e-08, x1 = 3.2e-07 | 0.000765 ± 7.7e-05 S/m
x2 = 9e-08, x1 = 6e-08 | 0.00125 ± 0.00013 S/m
x2 = 9e-08, x1 = 1.3e-07 | 0.00105 ± 0.00011 S/m
x2 = 9e-08, x1 = 3.7e-07 | 0.000826 ± 8.3e-05 S/m
x2 = 1e-07, x1 = 6e-08 | 0.00139 ± 0.00014 S/m
x2 = 1e-07, x1 = 1.5e-07 | 0.00109 ± 0.00011 S/m
x2 = 1.1e-07, x1 = 7e-08 | 0.00148 ± 0.00015 S/m
x2 = 1.1e-07, x1 = 1.1e-07 | 0.001 ± 0.0001 S/m
x2 = 1.2e-07, x1 = 3e-08 | 0.00103 ± 0.0001 S/m
x2 = 1.2e-07, x1 = 5e-08 | 0.000383 ± 3.8e-05 S/m
x2 = 1.2e-07, x1 = 8e-08 | 0.00152 ± 0.00015 S/m
x2 = 1.2e-07, x1 = 1.7e-07 | 0.00113 ± 0.00011 S/m
x2 = 1.4e-07, x1 = 1.4e-07 | 0.00108 ± 0.00011 S/m
x2 = 1.4e-07, x1 = 2.1e-07 | 0.00116 ± 0.00012 S/m
x2 = 1.5e-07, x1 = 4e-08 | 0.00112 ± 0.00011 S/m
x2 = 1.5e-07, x1 = 6e-08 | 0.000443 ± 4.4e-05 S/m
x2 = 1.5e-07, x1 = 1e-07 | 0.00161 ± 0.00016 S/m
x2 = 1.6e-07, x1 = 2e-08 | 0.000934 ± 9.3e-05 S/m
x2 = 1.6e-07, x1 = 7e-08 | 0.000477 ± 4.8e-05 S/m
x2 = 1.7e-07, x1 = 1.1e-07 | 0.00167 ± 0.00017 S/m
x2 = 1.8e-07, x1 = 1.8e-07 | 0.00116 ± 0.00012 S/m
x2 = 1.8e-07, x1 = 2.7e-07 | 0.0012 ± 0.00012 S/m
x2 = 1.9e-07, x1 = 2e-08 | 0.00106 ± 0.00011 S/m
x2 = 2e-07, x1 = 9e-08 | 0.000571 ± 5.7e-05 S/m
x2 = 2e-07, x1 = 1.3e-07 | 0.00173 ± 0.00017 S/m
x2 = 2.2e-07, x1 = 5e-08 | 0.00121 ± 0.00012 S/m
x2 = 2.2e-07, x1 = 2.2e-07 | 0.00125 ± 0.00013 S/m
x2 = 2.3e-07, x1 = 3e-08 | 0.00115 ± 0.00012 S/m
x2 = 2.6e-07, x1 = 1.7e-07 | 0.00178 ± 0.00018 S/m
x2 = 2.6e-07, x1 = 2.6e-07 | 0.00135 ± 0.00014 S/m
x2 = 2.8e-07, x1 = 3e-08 | 0.00131 ± 0.00013 S/m
x2 = 3e-07, x1 = 7e-08 | 0.00125 ± 0.00013 S/m
x2 = 3e-07, x1 = 1.3e-07 | 0.000632 ± 6.3e-05 S/m
x2 = 3e-07, x1 = 2e-07 | 0.00186 ± 0.00019 S/m
x2 = 3e-07, x1 = 3e-07 | 0.00143 ± 0.00014 S/m
x2 = 3.1e-07, x1 = 3e-08 | 0.00138 ± 0.00014 S/m
x2 = 3.4e-07, x1 = 4e-08 | 0.00144 ± 0.00014 S/m
x2 = 3.4e-07, x1 = 3.4e-07 | 0.00147 ± 0.00015 S/m
x2 = 3.6e-07, x1 = 4e-08 | 0.00156 ± 0.00016 S/m
x2 = 3.7e-07, x1 = 2.4e-07 | 0.00196 ± 0.0002 S/m
x2 = 4e-07, x1 = 4e-08 | 0.00168 ± 0.00017 S/m
x2 = 4.1e-07, x1 = 1e-07 | 0.0013 ± 0.00013 S/m
x2 = 4.1e-07, x1 = 1.8e-07 | 0.000659 ± 6.6e-05 S/m
x2 = 4.1e-07, x1 = 2.7e-07 | 0.00203 ± 0.0002 S/m
x2 = 4.6e-07, x1 = 3.1e-07 | 0.00208 ± 0.00021 S/m
x2 = 4.7e-07, x1 = 5e-08 | 0.00179 ± 0.00018 S/m
x2 = 5.1e-07, x1 = 2.2e-07 | 0.000678 ± 6.8e-05 S/m
x2 = 5.1e-07, x1 = 3.4e-07 | 0.0022 ± 0.00022 S/m
x2 = 5.4e-07, x1 = 6e-08 | 0.0019 ± 0.00019 S/m
x2 = 5.6e-07, x1 = 3.7e-07 | 0.00228 ± 0.00023 S/m
x2 = 5.8e-07, x1 = 1.5e-07 | 0.00133 ± 0.00013 S/m
x2 = 6.1e-07, x1 = 7e-08 | 0.00201 ± 0.0002 S/m
x2 = 6.6e-07, x1 = 2.8e-07 | 0.000706 ± 7.1e-05 S/m
x2 = 6.7e-07, x1 = 7e-08 | 0.00214 ± 0.00021 S/m
x2 = 7.9e-07, x1 = 3.4e-07 | 0.000733 ± 7.3e-05 S/m
x2 = 8.2e-07, x1 = 2e-07 | 0.00138 ± 0.00014 S/m
x2 = 9e-07, x1 = 3.9e-07 | 0.000778 ± 7.8e-05 S/m
x2 = 1.05e-06, x1 = 2.6e-07 | 0.00143 ± 0.00014 S/m
